Data set [1] has as its system Aβ42. Kind of data set: Method 1: Aβ42 sandwich ELISA in supernatant of SKNBE2 cells carrying APP 695-wild type (Tables 7a, 7b). In kind it is cell-based. The method in brief:
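SKNBE2 cells expressing wild-type APP695 were exposed to compound for 18 hours. Secreted Aβ42 was quantified by sandwich ELISA with C-terminal-selective capture, biotinylated 3D6 detection and TMB read-out at 450 nm. IC50 came from 4-parameter fits of % inhibition or % of untreated control; WST-1 monitored toxicity.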
A general note: In an ELISA, binding on a coated surface is turned into a signal by an enzyme label.

Data set [2] has as its system Notch-processing activity of the γ-secretase-complex. Briefly: Notch cell-free assay (NICD production from recombinant Notch substrate N99). Format: biochemical. As to conditions: 1 μM test compound; 0.3-0.5 μM mouse Notch substrate; enriched gamma secretase; 37° C., 6 to 22 h; western blot; control GSI concentration not given. On the procedure: The Notch transmembrane domain is cleaved by gamma secretase to release Notch Intracellular C-terminal Domain (NICD).
To monitor the effect of compounds on NICD production, a recombinant Notch substrate (N99) was prepared. The Notch substrate, comprised of mouse Notch fragment (V1711-E1809), an N-terminal methionine and a C-terminal FLAG sequence ([…]), was expressed in E. coli and purified on a column containing an anti-FLAG M2 affinity matrix.
A typical Notch cell-free assay consisted of 0.3-0.5 μM Notch substrate, an enriched preparation of gamma secretase and 1 μM of a test compound (compounds 16, 18 and 106 of the present invention). Controls included a gamma secretase inhibitor (GSI), such as (2S)—N-[2-(3,5-difluorophenyl)acetyl]-L-alanyl-2-phenyl-glycine 1,1-dimethylethyl ester (DAPT) or (2S)-2-hydroxy-3-methyl-N-[(1S)-1-methyl-2-oxo-2-[[(1S)-2,3,4,5-tetrahydro-3-methyl-2-oxo-1H-3-benzazepin-1-yl]amino]ethyl]-butanamide (Semagacestat), and DMSO, the final concentration of DMSO being 1%. Recombinant Notch substrate was pre-treated with 17 μM DTT (1,4-dithiothreitol) and 0.02% SDS (Sodium Dodecyl Sulfate) and heated at 65° C. for 10 min. The mixture of substrate, gamma secretase and compound/DMSO was incubated at 37° C. for 6 to 22 hours (h). Six-hour incubation was sufficient to produce the maximal amount of NICD and the cleaved product remained stable for an additional 16 H. Reaction products were processed for SDS PAGE (Sodium Dodecyl Sulfate-Poly Acrylamide Gel Electrophoresis) and western blotting. Blots were probed with an anti-Flag M2 antibody, followed by LI-COR infrared secondary antibody, and analyzed with the Odyssey Infrared Imaging System (LI-COR® Biosciences).
(In general: A western blot detects proteins with antibodies after separation by electrophoresis.)

In data set [3] the test system is mouse Notch2. Briefly: Notch cell-based assay (N2-CHO/DL-CHO co-culture, Dual-Glo luciferase, NICD production). To be noted: N2-CHO/DL-CHO co-culture 16 H; five-point curve 3 μM-0.3 nM. From the text: The Notch cell-based assay was based on the interaction of Notch and its ligand in a co-culture system and utilized the Dual-Glo Luciferase Assay System (Promega) to monitor NICD production. Two stable cell lines, N2-CHO and DL-CHO, were established to express full-length mouse Notch2 and Delta respectively. Cells that expressed mouse Notch were also transfected with two plasmids, pTP1-Luc and pCMV-RLuc, to express firefly and Renilla luciferase. Expression of firefly luciferase was under the control of TP1 promoter that responded to NICD activation.
N2-CHO cells were seeded at 1×10^5/well in 24-well plates the day before transfection. On the second day, cells were double transfected with 3 μg/well pTP1-Luc (expressing firefly luciferase) and 0.3 ng/well pCMV-RLuc (expressing Renilla luciferase). After 6 H incubation, transfected N2-CHO cells were washed and DL-CHO cells (2×10^5 cells/well) were added.
Compounds were pre-mixed with DL-CHO cell suspension in a five-point curve. Typically, compound treatment was performed in duplicate with a serial 1:10 dilution (3 μM-0.3 nM) in DMSO. The final concentration of DMSO in a given culture was 1%. Controls included non-transfected cells and transfected cells treated with a GSI or DMSO only. Luciferase assays were performed after 16 H co-culture and compound treatment.
The luciferase assay was carried out according to manufacture's instructions. Briefly, cells were washed with PBS (Phosphate Buffered Saline), lysed with Passive Lysis Buffer (Promega), and incubated at room temperature for 20 min. Lysates were mixed with Dual-Glo Luciferase Reagent and the firefly luciferase activity was measured by reading the luminescence signal in the EnVision 2101 Multilabel reader. Dual-Glo Stop & Glo Reagent was then added to each well and the Renilla luciferase signal was measured.

[4] abbreviates: Homo sapiens, SKNBE2, Table 7b, averaged IC50, non-linear regression of percentage of control vs log concentration, 4-parameter equation.
The mark [5] stands for this setting: Homo sapiens, Table 7a, SKNBE2 cells, compounds 18 h, XLfit 4-parameter fit of percent inhibition, top/bottom fixed to 100/0, hill slope 1.
Where [6] appears, read: Table 7b, averaged IC50, non-linear regression of percentage of control vs log concentration, 4-parameter equation.

We go through 10 compounds from patent US8946426B2, “Substituted bicyclic heterocyclic compounds as gamma secretase modulators” (Janssen Pharmaceuticals, Inc., priority 2009, dated 2015).

Structures are written as SMILES. Bounds are passed on as bounds.

Usually IC50 stands for the concentration needed to halve the response being measured. As a reminder, the melting point is the temperature of the solid-liquid transition. Regarding `Cc1ncoc1-c1ccc(Nc2cccc3c2nc(-c2ccc(F)cc2)n3C)nc1` [Compound 10], the melting point worked out at 195.4 °C. The midpoint of inhibition in data set [1] (setting [4]), the IC50, lay at 355 nM. This compound also had an IC50 in data set [1] (setting [5]) of 358 nM.

As to `COc1cc(Nc2cccc3c2nc(CCC(F)(F)F)n3C)ccc1-c1ocnc1C` [Compound 11], the concentration for half-maximal inhibition (IC50) in data set [1] (setting [4]) turned out to be 71 nM; in data set [1] (setting [5]), 72 nM.

Regarding `COc1cc(Nc2cccc3c2nc(-c2ccc(F)cc2)n3C)ccc1-c1ocnc1C` [Compound 12], the IC50 in data set [1] (setting [4]) was determined as 21 nM; in data set [1] (setting [5]), 23 nM.

Turning to `COc1cc(Nc2cccc3c2nc(-c2ccc(F)cc2)n3C)ccc1-c1cnc(C)o1` [Compound 16], the melting point amounted to 189 °C. Moreover, the IC50 in data set [1] (setting [4]) was 9 nM. Besides, in data set [1] (setting [5]), half-maximal inhibition (IC50) required 11 nM. The “effect on the Notch-processing activity of the γ-secretase-complex (production of NICD)” value in data set [2] is given as “did not show an effect”.

In the case of `Cc1ncc(-c2ccc(Nc3nccc4c3nc(-c3ccc(F)cc3)n4C)cc2F)o1` [Compound 17], the IC50 in data set [1] (setting [4]) is more than 10000 nM.

Compound `Cc1ncc(-c2ccc(Nc3cccc4c3nc(-c3ccc(F)cc3)n4C(C)C)cn2)o1` [Compound 18] came in with a melting point of 133.4 °C. This compound showed an IC50 in data set [1] (setting [4]) of 35 nM. Further, in data set [2], the “effect on the Notch-processing activity of the γ-secretase-complex (production of NICD)” value is “did not show an effect”. For the same compound, in data set [3], the “average IC50 values from the Notch cell-based assay (luciferase assay readouts)” value is reported as “non-inhibitory”.

Compound `COc1cccc(-c2nc3c(Nc4ccc(-c5cnc(C)o5)nc4)cc(F)cc3n2C)c1` [Compound 105] gave a concentration for half-maximal inhibition (IC50) in data set [1] (setting [6]) of 7 nM.

`COc1cc(Nc2nc(C(F)(F)F)cn3cc(C)nc23)ccc1-c1cnc(C)o1` [Compound 170] gave a half-maximal inhibitory concentration (IC50) in data set [1] (setting [6]) of 3550 nM.

In turn, `COc1cc(Nc2cncc3c2nc(-c2ccc(F)cc2)n3C)ccc1-c1cnc(C)o1` [Compound 186] yielded an IC50 in data set [1] (setting [6]) of 162 nM.

Regarding `COc1cc(Nc2cc(C(F)(F)F)nn3cc(C)nc23)ccc1-c1cnc(C)o1` [Compound 195], in data set [1] (setting [6]), the 50% inhibitory concentration (IC50) came out at 195 nM.
